pKd: −log10 of the molar value.
Target: JAK2 (JH1 domain-catalytic, Y1007F, Y1008F) kinase (Homo sapiens (Human), UniProt O60674, Y1007F/Y1008F)
Test: JAK2 JH1 Domain Binding Assay
Details: qPCR readout
In short: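 Competitive binding format: test compound, DNA-tagged JAK2 JH1 (Y1007F/Y1008F; HEK293-expressed NFkB fusion) and ligand-coated magnetic beads incubated 1 h at room temperature. Kinase retained on beads released with 0.5 μmol/L non-biotinylated ligand, then measured by qPCR.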

Sequence of JAK2 (JH1 domain-catalytic, Y1007F, Y1008F) kinase (O60674 849-1124 Y1007F/Y1008F): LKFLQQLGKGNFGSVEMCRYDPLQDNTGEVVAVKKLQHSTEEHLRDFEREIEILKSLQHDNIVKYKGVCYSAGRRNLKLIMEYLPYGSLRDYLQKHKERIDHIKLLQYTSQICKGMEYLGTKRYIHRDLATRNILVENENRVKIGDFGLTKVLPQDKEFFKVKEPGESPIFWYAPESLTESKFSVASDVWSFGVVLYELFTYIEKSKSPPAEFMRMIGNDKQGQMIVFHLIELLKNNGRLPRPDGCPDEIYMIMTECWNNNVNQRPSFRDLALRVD

| SMILES | pKd |
| --- | --- |
| COc1n[nH]c2ncc(N3CC[C@@H](N(C)C(=O)Nc4cc(C(F)(F)F)cn(C)c4=O)[C@H](F)C3)cc12 [Example I-84-b, 1-((3R,4R)-3-fluoro-1-(3-methoxy-1H-pyrazolo[3,4-b]pyridin-5-yl)piperidin-4-yl)-1-methyl-3-(1-methyl-2-oxo-5-(trifluoromethyl)-1,2-dihydropyridin-3-yl)urea] | > 8.00 |
| COc1n[nH]c2ncc(N3CC[C@@H](N(C)C(=O)Nc4cc(C(F)(F)F)cn(C)c4=O)[C@@H](F)C3)cc12 [Example I-87-a, 1-((3S,4R)-3-fluoro-1-(3-methoxy-1H-pyrazolo[3,4-b]pyridin-5-yl)piperidin-4-yl)-1-methyl-3-(1-methyl-2-oxo-5-(trifluoromethyl)-1,2-dihydropyridin-3-yl)urea] | > 8.00 |
| COc1n[nH]c2ncc(N3CC[C@H](N(C)C(=O)Nc4cc(C(F)(F)F)cn(C)c4=O)[C@H](F)C3)cc12 [Example I-87-b, 1-((3R,4S)-3-fluoro-1-(3-methoxy-1H-pyrazolo[3,4-b]pyridin-5-yl)piperidin-4-yl)-1-methyl-3-(1-methyl-2-oxo-5-(trifluoromethyl)-1,2-dihydropyridin-3-yl)urea] | > 8.00 |
| CO[C@H]1CN(c2cnc3[nH]ncc3c2)CC[C@H]1N(C)C(=O)Nc1cc(C(F)(F)F)cn(C)c1=O [Example I-88-a, 1-((3S,4R)-3-methoxy-1-(1H-pyrazolo[3,4-b]pyridin-5-yl)piperidin-4-yl)-1-methyl-3-(1-methyl-2-oxo-5-(trifluoromethyl)-1,2-dihydropyridin-3-yl)urea] | > 8.00 |
| CO[C@@H]1CN(c2cnc3[nH]ncc3c2)CC[C@@H]1N(C)C(=O)Nc1cc(C(F)(F)F)cn(C)c1=O [Example I-88-b, 1-((3R,4S)-3-methoxy-1-(1H-pyrazolo[3,4-b]pyridin-5-yl)piperidin-4-yl)-1-methyl-3-(1-methyl-2-oxo-5-(trifluoromethyl)-1,2-dihydropyridin-3-yl)urea] | > 8.00 |
| CN(C(=O)Nc1cc(C(F)(F)F)cn(C)c1=O)[C@@H]1CCN(c2cnc3[nH]n(C)c(=O)c3c2)C[C@@H]1F [Example I-89-a, 1-((3S,4R)-3-fluoro-1-(2-methyl-3-oxo-2,3-dihydro-1H-pyrazolo[3,4-b]pyridin-5-yl)piperidin-4-yl)-1-methyl-3-(1-methyl-2-oxo-5-(trifluoromethyl)-1,2-dihydropyridin-3-yl)urea] | 7.30 to 8.00 |
| CN(C(=O)Nc1cc(C(F)(F)F)cn(C)c1=O)[C@H]1CCN(c2cnc3[nH]n(C)c(=O)c3c2)C[C@H]1F [Example I-89-b, 1-((3R,4S)-3-fluoro-1-(2-methyl-3-oxo-2,3-dihydro-1H-pyrazolo[3,4-b]pyridin-5-yl)piperidin-4-yl)-1-methyl-3-(1-methyl-2-oxo-5-(trifluoromethyl)-1,2-dihydropyridin-3-yl)urea] | 7.30 to 8.00 |
| CN(C(=O)Nc1cc(C(F)(F)F)cn(C)c1=O)[C@@H]1CCN(c2cnc3[nH]n(C)c(=O)c3c2)C[C@H]1F [Example I-90-b, 1-((3R,4R)-3-fluoro-1-(2-methyl-3-oxo-2,3-dihydro-1H-pyrazolo[3,4-b]pyridin-5-yl)piperidin-4-yl)-1-methyl-3-(1-methyl-2-oxo-5-(trifluoromethyl)-1,2-dihydropyridin-3-yl)urea] | 7.30 to 8.00 |
| CN(C(=O)Nc1cc(C(F)(F)F)cn(C)c1=O)[C@H]1CCN(c2cnc3cn[nH]c3c2)C[C@H]1F [Example I-95-a, 1-((3R,4S)-3-fluoro-1-(1H-pyrazolo[4,3-b]pyridin-6-yl)piperidin-4-yl)-1-methyl-3-(1-methyl-2-oxo-5-(trifluoromethyl)-1,2-dihydropyridin-3-yl)urea] | > 8.00 |
| CN(C(=O)Nc1cc(C(F)(F)F)cn(C)c1=O)[C@@H]1CCN(c2cnc3cn[nH]c3c2)C[C@@H]1F [Example I-95-b, 1-((3S,4R)-3-fluoro-1-(1H-pyrazolo[4,3-b]pyridin-6-yl)piperidin-4-yl)-1-methyl-3-(1-methyl-2-oxo-5-(trifluoromethyl)-1,2-dihydropyridin-3-yl)urea] | > 8.00 |
| CN(C(=O)Nc1cc(C(F)(F)F)cn(C)c1=O)[C@@H]1CCN(c2cnc3[nH]n(C)c(=O)c3c2)CC1(F)F [Example I-96-a, (R)-1-(3,3-difluoro-1-(2-methyl-3-oxo-2,3-dihydro-1H-pyrazolo[3,4-b]pyridin-5-yl)piperidin-4-yl)-1-methyl-3-(1-methyl-2-oxo-5-(trifluoromethyl)-1,2-dihydropyridin-3-yl)urea] | 7.30 to 8.00 |
| CN(C(=O)Nc1cc(C(F)(F)F)cn(C)c1=O)[C@H]1CCN(c2cnc3[nH]n(C)c(=O)c3c2)CC1(F)F [Example I-96-b, (S)-1-(3,3-difluoro-1-(2-methyl-3-oxo-2,3-dihydro-1H-pyrazolo[3,4-b]pyridin-5-yl)piperidin-4-yl)-1-methyl-3-(1-methyl-2-oxo-5-(trifluoromethyl)-1,2-dihydropyridin-3-yl)urea] | > 8.00 |
| CNc1n[nH]c2ncc(N3CC[C@@H](N(C)C(=O)Nc4cc(C(F)(F)F)cn(C)c4=O)[C@@H](F)C3)cc12 [Example I-97-a, 1-((3S,4R)-3-fluoro-1-(3-(methylamino)-1H-pyrazolo[3,4-b]pyridin-5-yl)piperidin-4-yl)-1-methyl-3-(1-methyl-2-oxo-5-(trifluoromethyl)-1,2-dihydropyridin-3-yl)urea] | > 8.00 |
| CNc1n[nH]c2ncc(N3CC[C@H](N(C)C(=O)Nc4cc(C(F)(F)F)cn(C)c4=O)[C@H](F)C3)cc12 [Example I-97-b, 1-((3R,4S)-3-fluoro-1-(3-(methylamino)-1H-pyrazolo[3,4-b]pyridin-5-yl)piperidin-4-yl)-1-methyl-3-(1-methyl-2-oxo-5-(trifluoromethyl)-1,2-dihydropyridin-3-yl)urea] | > 8.00 |
| CN(C(=O)Nc1cc(C(F)(F)F)cn(C)c1=O)[C@H]1CCN(c2cnc3[nH]c(=O)[nH]c3c2)C[C@H]1F [Example I-100-a, 1-((3R,4S)-3-fluoro-1-(2-oxo-2,3-dihydro-1H-imidazo[4,5-b]pyridin-6-yl)piperidin-4-yl)-1-methyl-3-(1-methyl-2-oxo-5-(trifluoromethyl)-1,2-dihydropyridin-3-yl)urea] | > 8.00 |
| CN(C(=O)Nc1cc(C(F)(F)F)cn(C)c1=O)[C@@H]1CCN(c2cnc3[nH]c(=O)[nH]c3c2)C[C@@H]1F [Example I-100-b, 1-((3S,4R)-3-fluoro-1-(2-oxo-2,3-dihydro-1H-imidazo[4,5-b]pyridin-6-yl)piperidin-4-yl)-1-methyl-3-(1-methyl-2-oxo-5-(trifluoromethyl)-1,2-dihydropyridin-3-yl)urea] | > 8.00 |
| CN(C(=O)Nc1cc(C(F)(F)F)cn(C)c1=O)[C@@H]1CCN(c2cnc3[nH]nc(OC4COC4)c3c2)C[C@@H]1F [Example I-101-a, 1-((3S,4R)-3-fluoro-1-(3-(oxetan-3-yloxy)-1H-pyrazolo[3,4-b]pyridin-5-yl)piperidin-4-yl)-1-methyl-3-(1-methyl-2-oxo-5-(trifluoromethyl)-1,2-dihydropyridin-3-yl)urea] | 5.30 to 6.00 |

More lines, now with the values ahead:

| pKd | SMILES |
| --- | --- |
| > 8.00 | Cn1cc(C(F)(F)F)cc(NC(=O)C2(C3CCN(c4cnc5[nH]ccc5n4)CC3)CC2)c1=O [Example I-85, 1-(1-(5H-pyrrolo[2,3-b]pyrazin-2-yl)piperidin-4-yl)-N-(1-methyl-2-oxo-5-(trifluoromethyl)-1,2-dihydropyridin-3-yl)cyclopropane-1-carboxamide] |
| > 8.00 | CN(C(=O)Nc1cc(C(F)(F)F)cn(C)c1=O)C1CCN(c2cnc3[nH]n(C)c(=O)c3c2)CC1 [Example I-86, 1-methyl-3-(1-methyl-2-oxo-5-(trifluoromethyl)-1,2-dihydropyridin-3-yl)-1-(1-(2-methyl-3-oxo-2,3-dihydro-1H-pyrazolo[3,4-b]pyridin-5-yl)piperidin-4-yl)urea] |
| 6.00 to 7.30 | CN(C(=O)Nc1cc(C(F)(F)F)cn(C)c1=O)C1CCN(c2cnc3cncn3c2)CC1 [Example I-91, 1-(1-(imidazo[1,5-a]pyrimidin-3-yl)piperidin-4-yl)-1-methyl-3-(1-methyl-2-oxo-5-(trifluoromethyl)-1,2-dihydropyridin-3-yl)urea] |
| 7.30 to 8.00 | CNc1cn2ncc(N3CCC(N(C)C(=O)Nc4cc(C(F)(F)F)cn(C)c4=O)CC3)c2cn1 [Example I-92, 1-methyl-3-(1-methyl-2-oxo-5-(trifluoromethyl)-1,2-dihydropyridin-3-yl)-1-(1-(6-(methylamino)pyrazolo[1,5-a]pyrazin-3-yl)piperidin-4-yl)urea] |
| 7.30 to 8.00 | Cn1cc(C(F)(F)F)cc(NC(=O)N2CC=CC23CCN(c2cnc4[nH]cc(F)c4n2)CC3)c1=O [Example I-93, 8-(7-fluoro-5H-pyrrolo[2,3-b]pyrazin-2-yl)-N-(1-methyl-2-oxo-5-(trifluoromethyl)-1,2-dihydropyridin-3-yl)-1,8-diazaspiro[4.5]dec-3-ene-1-carboxamide] |
| > 8.00 | COc1c[nH]c2ncc(N3CCC(N(C)C(=O)Nc4cc(C(F)(F)F)cn(C)c4=O)CC3)cc12 [Example I-94, 1-(1-(3-methoxy-1H-pyrrolo[2,3-b]pyridin-5-yl)piperidin-4-yl)-1-methyl-3-(1-methyl-2-oxo-5-(trifluoromethyl)-1,2-dihydropyridin-3-yl)urea] |
| 7.30 to 8.00 | Cn1cc(C(F)(F)F)cc(NC(=O)N2CC=CC23CCN(c2cnc4[nH]cc(C#N)c4n2)CC3)c1=O [Example I-98, 8-(7-cyano-5H-pyrrolo[2,3-b]pyrazin-2-yl)-N-(1-methyl-2-oxo-5-(trifluoromethyl)-1,2-dihydropyridin-3-yl)-1,8-diazaspiro[4.5]dec-3-ene-1l-carboxamide] |
| > 8.00 | CNc1n[nH]c2ncc(N3CCC(N(C)C(=O)Nc4cc(C(F)(F)F)cn(C)c4=O)CC3)cc12 [Example I-99, 1-methyl-3-(1-methyl-2-oxo-5-(trifluoromethyl)-1,2-dihydropyridin-3-yl)-1-(1-(3-(methylamino)-1H-pyrazolo[3,4-b]pyridin-5-yl)piperidin-4-yl)urea] |
